Reference: patent publication US10947252B2, “Inhibitors of KEAP1-Nrf2 protein-protein interaction” (Janssen Pharmaceutica NV, priority 2018, dated 2021)

Test system: Glo-Response ARE-luc2P HEK293 cell line
Experiment: ARE luciferase reporter cell-based assay;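 also: luciferase signal tracks Nrf2 activation of the ARE once compounds disrupt KEAP1-Nrf2 binding, read with One-Glo reagent, DMSO serving as low control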
Settings: average of results obtained

SMILES | EC50 (Homo sapiens, HEK293, 24 h) | EC50 (24 hours)
Cc1ccc([C@H](CC(=O)O)c2ccn3c(C(F)F)nnc3c2C)cc1CN1C[C@@H]2CCCCN2c2ncc(C#N)cc2S1(=O)=O (relative stereo) [Example 31, (*S)-3-(3-(((*S)-3-Cyano-5,5-dioxido-7,7a,8,9,10,11-hexahydro-6H-dipyrido[2,1-d:2′,3′-f][1,2,5]thiadiazepin-6-yl)methyl)-4-methylphenyl)-3-(3-(difluoromethyl)-8-methyl-[1,2,4]triazolo[4,3-a]pyridin-7-yl)propanoic Acid] | 9.9 nM | –
CCn1nnc2c(C)c([C@H](CC(=O)O)c3ccc(C)c(CN4C[C@H]5COCCN5c5ncccc5S4(=O)=O)c3)ccc21 (single isomer, unassigned) [Example 137, (*R)-3-(3-(((*S)-5,5-Dioxido-7a,8,10,11-tetrahydro-[1,4]oxazino[3,4-d]pyrido[2,3-f][1,2,5]thiadiazepin-6(7H)-yl)methyl)-4-methylphenyl)-3-(1-ethyl-4-methyl-1H-benzo[d][1,2,3]triazol-5-yl)propanoic Acid] | 300 nM | –
Cc1ccc([C@@H](c2ccn3c(C(F)(F)F)nnc3c2C)C(C)(C)C(=O)O)cc1CN1CC2(CCNCC2)Oc2ncccc2S1(=O)=O (single isomer, unassigned) [Example 336, (*S)-3-(3-((1′,1′-Dioxidospiro[piperidine-4,4′-pyrido[2,3-b][1,4,5]oxathiazepin]-2′(3′H)-yl)methyl)-4-methylphenyl)-2,2-dimethyl-3-(8-methyl-3-(trifluoromethyl)-[1,2,4]triazolo[4,3-a]pyridin-7-yl)propanoic Acid] | 1830 nM | –
Cc1cnc2c(c1)S(=O)(=O)N(Cc1cc(C(c3ccn4c(C(F)F)nnc4c3C)C(C)(C)C(=O)O)ccc1C)CC1(CC1)O2 (racemic) [Example 559, (R/S)-3-(3-(Difluoromethyl)-8-methyl-[1,2,4]triazolo[4,3-a]pyridin-7-yl)-2,2-dimethyl-3-(4-methyl-3-((8′-methyl-1′,1′-dioxidospiro[cyclopropane-1,4′-pyrido[2,3-b][1,4,5]oxathiazepin]-2′(3′H)-yl)methyl)phenyl)propanoic Acid] | 4.69 nM | –
CCn1nnc2c(C)c([C@@H](CC(=O)O)c3ccc(C)c(CN4C[C@@H]5COCCN5c5ncccc5S4(=O)=O)c3)ccc21 (single isomer, unassigned) [Example 139, (*S)-3-(3-(((*R)-5,5-Dioxido-7a,8,10,11-tetrahydro-[1,4]oxazino[3,4-d]pyrido[2,3-f][1,2,5]thiadiazepin-6(7H)-yl)methyl)-4-methylphenyl)-3-(1-ethyl-4-methyl-1H-benzo[d][1,2,3]triazol-5-yl)propanoic Acid] | 3.3 nM | –
Cc1ccc(C(c2ccn3c(C(F)(F)F)nnc3c2C)C(C)(C)C(=O)O)cc1CN1CC2(CC2)Oc2ncccc2S1(=O)=O (stereo not shown) [Example 316, 3-(3-((1′,1′-Dioxidospiro[cyclopropane-1,4′-pyrido[2,3-b][1,4,5]oxathiazepin]-2′(3′H)-yl)methyl)-4-methylphenyl)-2,2-dimethyl-3-(8-methyl-3-(trifluoromethyl)-[1,2,4]triazolo[4,3-a]pyridin-7-yl)propanoic Acid] | 1.3 nM | –
Cc1ccc([C@@H](CC(=O)O)c2ccn3c(C(F)(F)F)nnc3c2C)cc1CN1C[C@@H]2COCCN2c2ncccc2S1(=O)=O (relative stereo) [Example 277, (*R)-3-(3-(((*R)-5,5-Dioxido-7a,8,10,11-tetrahydro-[1,4]oxazino[3,4-d]pyrido[2,3-f][1,2,5]thiadiazepin-6(7H)-yl)methyl)-4-methylphenyl)-3-(8-methyl-3-(trifluoromethyl)-[1,2,4]triazolo[4,3-a]pyridin-7-yl)propanoic Acid] | – | 102 nM
Cc1ccc([C@H](CC(=O)O)c2ccn3c(C(F)(F)F)nnc3c2C)cc1CN1C[C@H]2CCCCN2c2nc(C#N)ccc2S1(=O)=O (relative stereo) [Example 204, (*S)-3-(3-(((*R)-2-Cyano-5,5-dioxido-7,7a,8,9,10,11-hexahydro-6H-dipyrido[2,1-d:2′,3′-f][1,2,5]thiadiazepin-6-yl)methyl)-4-methylphenyl)-3-(8-methyl-3-(trifluoromethyl)-[1,2,4]triazolo[4,3-a]pyridin-7-yl)propanoic Acid] | 5.9 nM | –
CC[C@@H]1CN(Cc2cc([C@H](CC(=O)O)c3ccn4c(C(F)F)nnc4c3C)ccc2C)S(=O)(=O)c2cccnc2O1 (relative stereo) [Example 464, (*S)-3-(3-(Difluoromethyl)-8-methyl-[1,2,4]triazolo[4,3-a]pyridin-7-yl)-3-(3-(((R)-4-ethyl-1,1-dioxido-3,4-dihydro-2H-pyrido[2,3-b][1,4,5]oxathiazepin-2-yl)methyl)-4-methylphenyl)propanoic Acid] | 24.7 nM | –
CCn1nnc2c(C)c(C(CC(=O)O)c3ccc(C)c(CN4C[C@H]5COCCN5c5ncccc5S4(=O)=O)c3)ccc21 (mixture of isomers) [Example 135, (R/S)-3-(3-(((*S)-5,5-Dioxido-7a,8,10,11-tetrahydro-[1,4]oxazino[3,4-d]pyrido[2,3-f][1,2,5]thiadiazepin-6(7H)-yl)methyl)-4-methylphenyl)-3-(1-ethyl-4-methyl-1H-benzo[d][1,2,3]triazol-5-yl)propanoic Acid] | 24 nM | –
Cc1ccc([C@@H](c2cc(OC(F)F)c3c(c2)nnn3C)C(C)(C)C(=O)O)cc1CN1CC2(CCOCC2)Oc2ncccc2S1(=O)=O (single isomer, unassigned) [Example 426] | 0.9 nM | –
Cc1cc2cc([C@H](c3ccc(C)c(CN4CC5(CCOCC5)Oc5nc(OCCN6CCCC6)c(C)cc5S4(=O)=O)c3)C(C)(C)C(=O)O)n(C)c2nn1 (single isomer, unassigned) [Example 347, (*R)-3-(3,7-Dimethyl-7H-pyrrolo[2,3-c]pyridazine-6-yl)-2,2-dimethyl-3-(4-methyl-3-((8′-methyl-1′,1′-dioxido-7′-(2-(pyrrolidine-1-yl)-ethoxy)2,3,5,6-tetrahydrospiro[pyran-4,4′-pyrido[2,3-b][1,4,5]oxathiazepin]-2′,(3′H)-yl)methyl)phenyl)propanoic Acid] | 3580 nM | –
Cc1ccc(C(c2ccn3c(C(F)F)nnc3c2C)C(C)(C)C(=O)O)cc1CN1CC2(CC2)Oc2ncccc2S1(=O)=O (racemic) [Example 566, (R/S)-3-(3-(Difluoromethyl)-8-methyl-[1,2,4]triazolo[4,3-a]pyridin-7-yl)-3-(3-((1′,1′-dioxidospiro[cyclopropane-1,4′-pyrido[2,3-b][1,4,5]oxathiazepin]-2′(3′H)-yl)methyl)-4-methylphenyl)-2,2-dimethylpropanoic Acid] | 6.81 nM | –
Cc1cc2cc([C@H](c3ccc(C)c(CN4CC5(CC5)Oc5nc(OCCN6CCCC6)c(C)cc5S4(=O)=O)c3)C(C)(C)C(=O)O)n(C)c2nn1 (single isomer, unassigned) [Example 353, (*R)-3-(3,7-Dimethyl-7H-pyrrolo[2,3-c]pyridazine-6-yl)-2,2-dimethyl-3-(4-methyl-3-((8′-methyl-1′,1′-dioxido-7′-(2-(pyrrolidin-1-yl)-ethoxy)spiro[cyclopropane-1,4′-pyrido[2,3-b][1,4,5]oxathiazepin]-2′-(3′H)-yl)methyl)phenyl)propanoic Acid] | 1410 nM | –
CCn1nnc2c(C)c(C(CC(=O)O)c3ccc(C)c(CN4C[C@@H]5COCCN5c5ncccc5S4(=O)=O)c3)ccc21 (mixture of isomers) [Example 138, (R/S)-3-(3-(((*R)-5,5-Dioxido-7a,8,10,11-tetrahydro-[1,4]oxazino[3,4-d]pyrido[2,3-f][1,2,5]thiadiazepin-6(7H)-yl)methyl)-4-methylphenyl)-3-(1-ethyl-4-methyl-1H-benzo[d][1,2,3]triazol-5-yl)propanoic Acid] | 14 nM | –
Cc1cc2cc([C@@H](c3ccc(C)c(CN4CC5(CCOCC5)Oc5nc(OCCN6CCCC6)c(C)cc5S4(=O)=O)c3)C(C)(C)C(=O)O)n(C)c2nn1 (single isomer, unassigned) [Example 346, (*S)-3-(3,7-Dimethyl-7H-pyrrolo[2,3-c]pyridazin-6-yl)-2,2-dimethyl-3-(4-methyl-3-((8′-methyl-1′,1′-dioxido-7′-(2-(pyrrolidin-1-yl)ethoxy)-2,3,5,6-tetrahydrospiro[pyran-4,4′-pyrido[2,3-b][1,4,5]oxathiazepin]-2′(3′H)-yl)methyl)phenyl)propanoic Acid] | 49.8 nM | –
Cc1ccc(C(c2ccn3c(C(F)(F)F)nnc3c2)C(C)(C)C(=O)O)cc1CN1CC2(CCOCC2)Oc2ncccc2S1(=O)=O (stereo not shown) [Example 319, 3-(3-((1′,1′-Dioxido-2,3,5,6-tetrahydrospiro[pyran-4,4′-pyrido[2,3-b][1,4,5]oxathiazepin]-2′(3′H)-yl)methyl)-4-methylphenyl)-2,2-dimethyl-3-(3-(trifluoromethyl)-[1,2,4]triazolo[4,3-a]pyridin-7-yl)propanoic Acid] | 44.5 nM | –
CCc1c([C@H](c2ccc(C)c(CN3C[C@@H]4CCCCN4c4ncc(C)cc4S3(=O)=O)c2)C(C)C(=O)O)ccn2c(C(F)(F)F)nnc12 (relative stereo) [Example 513, (3*S)-3-(8-Ethyl-3-(trifluoromethyl)-[1,2,4]triazolo[4,3-a]pyridin-7-yl)-2-methyl-3-(4-methyl-3-(((*S)-3-methyl-5,5-dioxido-7,7a,8,9,10,11-hexahydro-6H-dipyrido[2,1-d:2′,3′-f][1,2,5]thiadiazepin-6-yl)methyl)phenyl)propanoic Acid] | 1.63 nM | –
Cc1ccc([C@H](c2ccn3c(C(F)(F)F)nnc3c2C)C(C)(C)C(=O)O)cc1CN1CC2(CCOCC2)Oc2nc(NCCCO)ccc2S1(=O)=O (single isomer, unassigned) [Example 116, (*R)-3-(3-((7′-((3-Hydroxypropyl)amino)-1′,1′-dioxido-2,3,5,6-tetrahydrospiro[pyran-4,4′-pyrido[2,3-b][1,4,5]oxathiazepin]-2′(3′H)-yl)methyl)-4-methylphenyl)-2,2-dimethyl-3-(8-methyl-3-(trifluoromethyl)-[1,2,4[triazolo[4,3-a]pyridine-7-yl)propanoic Acid] | 991 nM | –
